For experiment [1], the system named is mice with thiamine-deficiency. Nature of the experiment: Symptoms caused by thiamine deficiency (blood lactate, grip strength, body temperature) under different oxygen tensions. The class given is in vivo. An excerpt: FIGS. 6A-6E depict the results of lowering FiO2 on the symptoms caused by thiamine deficiency. Blood lactate measured in mice housed under different oxygen tensions 21 and 35 days after the diets started. […] Muscle strength assessed by grip strength of mice administered with 17 ppm or 0 ppm thiamine for 21 days. Muscle strength is compromised in mice with thiamine-deficiency under 55% and 21% oxygen (FIG. 6C). […] Student's t-test * p<0.05, ** p<0.01, […]. While the present invention has been described with reference to the specific embodiments thereof, it should be understood by those skilled in the art that various changes may be made and equivalents may be substituted without departing from the true spirit and scope of the invention. In addition, many modifications may be made to adapt a particular situation, material, composition of matter, process, process step or steps, to the objective, spirit and scope of the present invention. All such modifications are intended to be within the scope of the claims appended hereto.

Experiment [2] concerns WKS mouse models. Nature of the experiment: Body weight and disease onset of WKS mouse model (0 ppm thiamine and pyrithiamine injections) in normoxia versus hypoxia. It is filed as in vivo, mice. The method, then:
FIG. 3 depicts the body weight of Wernicke-Korsakoff (WKS) Animal Model (0 ppm thiamine and pyrithiamine injections) in normoxia versus hypoxia using the methods described herein.
Hypoxia and moderate hyperoxia exposure were tested in these mouse models of WK syndrome. Six groups of mice for each different oxygen exposure will be used—(no disease, moderate disease, extreme disease)×(with or without thiamine treatment starting day 10 of the disease model). […] This sample size should be sufficient to detect a 30% increase in survival with 80% power. Disease progression in these different conditions will be carefully monitored. Daily body weights from the beginning of treatment will be taken. Additionally, behavior was monitored on a weekly basis using rotarod tests, open field experiments and the Y-maze memory test. For 3 mice per group, T2-weighted MRI scans was performed once per week. This will allow the monitoring of the disease progression and reversal. For a separate set of 3 mice per group, mice were sacked, and neuropathology performed, staining for neuronal cell loss (using NeuN) or neuroinflammatory signatures (using antibodies against GFAP) similar to that performed in Jain et. al.
FIG. 3 depicts the results of WKS mouse models being treated at 21% O2 (normoxia) and 11% O2 (hypoxia) for a span of 20 days. […] Hypoxia began on Day 3 of the experiment.

Experiment [3] deals with mice on a thiamine-deficient diet.
The test system of experiment [4] is mouse models for Wernicke-Korsakoff syndrome. The conditions noted are these: 500 mg thiamine 3×/day; both models (thiamine-deficient diet, with or without pyrithiamine); cited from earlier work.

Each structure is given as a SMILES string.

In the case of `O=O` [O2, oxygen], the body temperature entry in experiment [1] (11% O2, thiamine-deficient diet for 43 days, mice under normoxic air exhibit hypothermia) was “normal body temperatures”. Besides, the “muscle strength assessed by grip strength” value in experiment [1] (55% oxygen, 0 ppm thiamine for 21 days) is given as “compromised”. In addition, in experiment [1] (55% oxygen, day 21 and day 35 after the diets started, severe disease state), the blood lactate result was “lactic acidosis”. Moreover, the “disease onset (physiological signs of WKS)” value in experiment [2] (11% O2 (hypoxia) begun on Day 3, span of 20 days, versus 21% O2 (normoxia)) is “prevented disease onset”. Also, the “significant drop of body-weight at Day 14” value in experiment [2] (11% O2 (hypoxia), body-weight at 21% O2 dropped significantly at Day 14) is “did not”. Besides, in experiment [3] (8% O2 (extreme hypoxia)), the “onset of weight loss” value was “further delayed the onset of weight loss”, the “survival at 60 days after start of thiamine-deficient diet” value is listed as “some mice were still alive at 60 days” and the survival time result is listed as “extended the survival time”. Also, the “extension of survival time” value in experiment [3] (11% O2, versus 21% O2 (median survival time 37 days)) was “approximately 13 days”. Also, the “rate of body weight loss” value in experiment [3] (11% O2, versus 21% O2 (weight loss began at 21 days)) is “lost body weight at a slower rate”. The disease progression entry in experiment [3] (55% O2) is given as “exacerbated the disease progression”.

Regarding `Cc1ncc(C[n+]2csc(CCO)c2C)c(N)n1` [thiamine], the “disease progression in thiamine-deficiency models” value in experiment [4] is “can be reversed”.

The record behind these values is US12156877B1, “Methods of treating conditions related to a thiamine deficiency, a thiamine-dependent enzyme, or an associated cofactor” (The Regents of the University of California, priority 2019, dated 2024).
